According to US20060040870A1, “Enhancement of apoptosis by caspase-9 inhibitors” (priority 2004, published 2006):
The star is where a group is joined. Cbz = O=C(OCc1ccccc1)*; CH2F = FC*

What was measured:
CD19+ B-cell precursors = test: Annexin V staining of sorted cord blood-derived CD19+ B-cell precursors removed from MS-5 stroma; type: cell-based, human; details: cultured 18 hours, DMSO control 46.5 ± 1.4, Time 0 1.5
Procedure: Normal B-lineage cells. CD19+ B-lineage cells were derived from CD34+ human cord blood stem cells plated on the murine stromal cell line MS-5 (Itoh Exp Hematol. 1989;17:145-153). MS-5 stromal cells were kindly provided by Dr. Paul Kincade (University of Oklahoma Medical Research Foundation), following permission from Professor K. John Mori (Niigata University, Japan). FACS-purified CD34+/CD38+/lineage—cord blood hematopoietic stem cells were plated onto confluent, non-irradiated MS-5 stromal cells in 96-well flat-bottom plates (200 cells/well) containing Minimal Essential Medium supplemented with 10% FBS. Stem cell factor and G-CSF were added at 10 ng/ml (twice weekly) to enhance the emergence of CD19+ B-lineage cells (Nishihara Eur J Immunol. 1998;28:855-864; Ohkawara Leukemia. 1998;12:764-771). […] Wells were then pooled, stained with PE-conjugated anti-CD 19 + propidium iodide (PI), and sorted on a FACSVantage (BD Immunocytometry Systems, San Jose, Calif.). Cord blood CD34+/CD38+/lineage—cells were provided by Valerie McCullar and Dr. Jeff Miller of the University of Minnesota Cancer Center in accordance with the University of Minnesota Institutional Review Board on Human Subjects.
Flow cytometry. Quantitation of apoptotic events was conducted using a FACS Calibur (BD Immunocytometry Systems). […]

[1] = tested on: caspase-9-deficient cells (BLIN-4L, RAMOS); test: Annexin V apoptosis in caspase-9 siRNA-treated BLIN-4L and RAMOS cells; type: cell-based, human; details: BLIN-4L and RAMOS electroporated with caspase-9 siRNA, 50 μM, 8 hours
Procedure: This technology employs a double algorithm. […] In preliminary studies using FITC-conjugated control siRNA (Dharmacon), we determined that the BLIN cell lines could be transfected to >80% efficiency by electroporation. […] BLIN-4L were then diluted into 4.8 ml of X-VIVO 10 supplemented with 10% FBS and 5 ng/ml of IL-7.
The inventors performed further studies to determine whether caspase-9 can be completely knocked out by means of RNA interference (RNAi). […] The inventors discovered that C9i induces apoptosis in caspase-9-deficient cells. BLIN-4L (FIG. 7A) and RAMOS (FIG. 7B) cells were electroporated with 8 μM SMARTpool (Dharmacon Inc.) caspase-9 siRNA or control siRNA and allowed to recover for 3 days in X-VIVO/10% FCS supplemented with 5 ng/ml IL-7 (BLIN-4L), or RPMI/10% FCS (RAMOS). After 3 days, the electroporated populations were assayed for Annexin V binding (to determine background levels of apoptosis), and then cultured in DMSO or 50 μM C9i for 8 hours. The cells were then harvested, stained with Annexin V, and analyzed by flow cytometry. […] Thus, no caspase-9 was present at all in the cells. […] Thus, C9i clearly is acting on another molecule in the cell besides just caspase-9. Also, one can conclude that caspase-9 is not necessary for C9i-induced apoptosis to occur.

leukemic cell lines = test: Staurosporine response of panel of leukemic cell lines, Annexin V; type: cell-based; details: staurosporine plus 50 μM C9i; leukemic cells that responded to C9i alone
Procedure: FIG. 4 is a pair of graphs showing the effect of […] on various cell lines, as determined by Annexin V staining and flow cytometry. The cells included the B-cell precursor ALL cell lines […], and NALM-6, the RAMOS, RAJI, and DAUDI Burkitt lymphoma cell lines, the CCRF-CEM, JURKAT, and H9 T lymphoma cell lines, the K-562 erythroleukemia cell line, and resting or activated (i.e., CD3/CD28 cross-linked) normal human T cells. […] Flow cytometry. Quantitation of apoptotic events was conducted using a FACS Calibur (BD Immunocytometry Systems). All analyses were conducted on cells with lymphoid light scatter characteristics (i.e., low to medium forward scatter and low 90° side scatter). iii. Annexin V. […] Cells were stained according to the manufacturers recommendations. The inventors expanded their analysis of […] to other leukemic cell lines. […] The JURKAT T lymphoma cell line was also sensitive. In contrast, the RAJI and DAUDI Burkitt lymphoma cell lines, the H9 T lymphoma cell line, and the K-562 erythroleukemia cell line were insensitive to […]. […] The inventors also tested whether […] would potentiate the apoptotic effect of the widely used serine/threonine kinase inhibitor staurosporine. […] Thus, the leukemic cell lines were generally responsive to both […] and staurosporine, or responsive to neither.

BLIN-3 cells = test: Loss of mitochondrial transmembrane potential (TMRE) and YO-PRO permeability in BLIN-3; type: cell-based, human; details: BLIN-3, FIG. 2
Procedure: Numbers in the histograms indicate the percentage of PI^- cells that underwent a loss of Δψm. Numbers in the contour plots indicate the percentage of Annexin V^+/PI^- cells. […] Numbers in the contour plots indicate the percentage of YO^- PRO^+/PI^- cells. Numbers in the histograms indicate the percentage of PI^- cells that underwent a loss of Δψm. Flow cytometry. Quantitation of apoptotic events was conducted using a FACS Calibur (BD Immunocytometry Systems). All analyses were conducted on cells with lymphoid light scatter characteristics (i.e., low to medium forward scatter and low 90° side scatter). i. Mitochondrial transmembrane potential (Δψm). The cationic lipophilic fluorescent dye tetramethylrhodamine, ethyl ester, perchlorate (TMRE) was purchased from Molecular Probes, Inc. (Eugene, Oreg.). TMRE has a high degree of membrane permeability and accumulates into mitochondria in accord with the Nernstian equation (Farkas Biophys J. 1989;56:1053-1069). Cells were washed once and re-suspended to 0.5-1.0×10^6/ml in X-VIVO 10. TMRE was added to a final concentration of 50 nM and the cells were incubated in the dark at 37° C. for 15 minutes. […] ii. YO-[…]. The green fluorescent DNA intercalant dye YO-PRO-1 (Idziorek J Immunol Methods. 1995;185:249-258) was purchased from Molecular Probes as the Vybrant Apoptosis Assay Kit #4. […]

For “Z-LEHD-fmk (Cbz-LEHD-CH2F; SMILES CC(C)C[C@H](NC(=O)OCc1ccccc1)C(=O)N[C@@H](CCC(=O)O)C(=O)N[C@@H](Cc1c[nH]cn1)C(=O)N[C@@H](CC(=O)O)C(=O)CF) [C9i]”, the “percentage of total Annexin V+ cells (PI+ and PI−), mean ± SD” value (CD19+ B-cell precursors) was 56.0 ± 3.2 %, the “induction of apoptosis in caspase-9-deficient cells (Annexin V)” value [1] was “still induced apoptosis” and the “potentiation of the apoptotic effect of staurosporine” value (leukemic cell lines) was “enhanced the staurosporine response”. For the same substance, the “enhancement of apoptosis (YO-PRO+/PI− cells, reduced TMRE staining) versus concentration” value (BLIN-3 cells) was “dose-dependent”.
